ChEMBL document CHEMBL1201862, “PubChem BioAssay data set” (2004)
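48-hour exposure; five concentrations; linearly interpolated endpoints. At the GI50, growth is halved.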 Calls of active or inactive are those of the source. Cut-off read from the data, not from the text of the source: active = GI50 up to about 1.1 µM and inactive = higher.

What was measured:
Experiment in all cases: DTP human tumour cell line panel, 48 h
[1] = system: CCRF-CEM
[2] = system: EKVX
[3] = system: HOP-62
[4] = system: NCI-H23
[5] = system: NCI-H522
[6] = system: OVCAR-3
[7] = system: OVCAR-4
[8] = system: OVCAR-8
[9] = system: SF-539
[10] = system: SK-MEL-2
[11] = system: SK-MEL-5
[12] = system: SK-OV-3
[13] = system: SNB-75
[14] = system: SW-620
[15] = system: TK-10
[16] = system: UO-31
[17] = system: Malme-3M

Measured: GI50

Cc1ccc(C)c2sc3cc(=O)ccc-3nc12
inactive: [1] 14.9 µM | [2] 37.2 µM | [3] 28.7 µM | [4] 29 µM | [5] 7.83 µM | [6] 43.3 µM | [7] 21.1 µM | [8] 35.2 µM | [9] 32.2 µM | [10] 53.3 µM | [11] 16.5 µM | [12] > 100 µM | [13] 55.5 µM | [14] 63.1 µM | [15] 26.3 µM | [16] 45.5 µM

N#CC(NNC(=O)Cc1ccccc1)c1ccc(O)cc1 (stereo unspecified)
inactive: [1] > 100 µM | [3] > 100 µM | [17] > 100 µM | [4] > 100 µM | [5] > 100 µM | [7] > 100 µM | [8] > 100 µM | [9] > 100 µM | [10] > 100 µM | [11] > 100 µM | [12] > 100 µM | [13] 28.2 µM | [14] > 100 µM | [15] > 100 µM | [16] > 100 µM

O=C(CC(=O)Nc1ccc(Cl)cc1)NNCC(=O)Nc1nc(-c2ccccc2)cs1
inactive: [1] > 100 µM | [2] > 100 µM | [3] > 100 µM | [4] > 100 µM | [5] > 100 µM | [6] > 100 µM | [7] > 100 µM | [8] > 100 µM | [9] > 100 µM | [11] > 100 µM | [12] > 100 µM | [13] > 100 µM | [14] > 100 µM | [15] > 100 µM

CC(C)(C)c1ccc(OC2CCO2)cc1 (stereo unspecified)
inactive: [1] 24.7 µM | [2] 35.1 µM | [3] > 100 µM | [17] 67 µM | [4] 55.5 µM | [5] 23.6 µM | [6] 34.5 µM | [7] 34.2 µM | [8] 38.6 µM | [9] 37.6 µM | [11] 36.3 µM | [12] > 100 µM | [13] 53.8 µM | [14] 17.1 µM | [15] 42.4 µM | [16] 58.2 µM

COC(=O)C1C=CCC2CCCCC21N1CCCC1 (stereo unspecified)
inactive: [1] 53.1 µM | [2] > 100 µM | [3] > 100 µM | [17] > 100 µM | [5] 53.8 µM | [6] 49.4 µM | [7] > 100 µM | [8] 59.4 µM | [9] > 100 µM | [11] 84.3 µM | [12] > 100 µM | [13] 44 µM | [14] 83.6 µM | [15] > 100 µM | [16] > 100 µM

O=[N+]([O-])c1ccc(/C=N/C2CCCCC2)cc1
inactive: [1] > 100 µM | [2] > 100 µM | [3] > 100 µM | [17] > 100 µM | [4] > 100 µM | [6] > 100 µM | [7] > 100 µM | [8] > 100 µM | [9] > 100 µM | [10] > 100 µM | [11] > 100 µM | [12] > 100 µM | [13] > 100 µM | [14] > 100 µM | [15] > 100 µM | [16] > 100 µM

COc1cc(/C=C\c2ccccn2)cc(OC)c1OC
inactive: [1] > 100 µM | [2] 48.5 µM | [3] 79.4 µM | [17] > 100 µM | [4] > 100 µM | [5] 70 µM | [6] > 100 µM | [7] > 100 µM | [8] > 100 µM | [9] > 100 µM | [11] 57.5 µM | [13] 47.3 µM | [14] 41.8 µM | [15] > 100 µM | [16] 56.9 µM

[N-]=[N+]=Nc1ccc(CCN2CCN(c3cccc(C(F)(F)F)c3)CC2)cc1I
inactive: [1] 54.1 µM | [2] > 100 µM | [17] > 100 µM | [4] 46.6 µM | [5] 27.7 µM | [6] 78.9 µM | [7] > 100 µM | [8] > 100 µM | [9] > 100 µM | [10] 38.4 µM | [11] 65.8 µM | [12] > 100 µM | [13] 41.7 µM | [14] 70.3 µM | [15] > 100 µM | [16] 21.1 µM

CCOC(=O)C1(C)C2=CC=C(O2)C(C)(C)C2=CC=C(O2)C(C)(C)C2=CC=C(O2)C(C)(C)C2=CC=C1O2
inactive: [1] 64.3 µM | [2] > 100 µM | [3] > 100 µM | [17] > 100 µM | [4] > 100 µM | [5] > 100 µM | [7] 3.44 µM | [8] 76.2 µM | [9] > 100 µM | [10] > 100 µM | [12] > 100 µM | [14] > 100 µM | [15] > 100 µM

Cn1nc(-c2ccccc2)c(C(=O)/C=C/c2ccccc2)c(N2CCCCC2)c1=O
inactive: [1] 3.72 µM | [2] > 100 µM | [3] 3.91 µM | [4] 14 µM | [5] 7.05 µM | [8] 42 µM | [9] 41.5 µM | [11] 17.5 µM | [12] > 100 µM | [14] 34 µM | [15] > 100 µM | [16] 17.5 µM

CCOC(=O)C1=C(Nc2ccc(Br)cc2)OC/C1=N\NC(=O)c1ccccc1O
inactive: [1] 9.66 µM | [2] 18.8 µM | [3] 11.2 µM | [17] 35.4 µM | [4] 6.52 µM | [5] 7.98 µM | [6] 21.4 µM | [7] 26.2 µM | [8] 13.1 µM | [9] 11.2 µM | [10] 15.1 µM | [11] 49.7 µM | [12] 12.8 µM | [14] 23 µM | [15] > 34.8 µM | [16] 9.71 µM

COC(=O)/C(C)=C(/CCC1(C)OCCO1)O[Si](C)(C)C
inactive: [1] > 100 µM | [2] > 100 µM | [3] > 100 µM | [17] > 100 µM | [4] > 100 µM | [6] > 100 µM | [7] > 100 µM | [8] > 100 µM | [9] > 100 µM | [10] > 100 µM | [11] > 100 µM | [12] > 100 µM | [13] 20.5 µM | [14] > 100 µM | [15] > 100 µM | [16] 95.3 µM

CC(=O)NC(CC(C)C)C(=O)NC(Cc1ccccc1)C(=S)N1CCCC1 (stereo unspecified)
inactive: [1] > 100 µM | [2] > 100 µM | [3] > 100 µM | [17] > 100 µM | [4] > 100 µM | [5] > 100 µM | [6] > 100 µM | [7] > 100 µM | [8] > 100 µM | [10] > 100 µM | [11] > 100 µM | [12] > 100 µM | [13] > 100 µM | [14] > 100 µM | [15] > 100 µM | [16] > 100 µM
